Measured values: ChEMBL document CHEMBL1151886, “Synthesis and SAR of hydroxyethylamine based phenylcarboxyamides as inhibitors of BACE” (Bioorg Med Chem Lett, 2009)

How the values were obtained:
Beta-secretase 1 [1] = molecular target: T1, Beta-secretase 1 (Homo sapiens, UniProt P56817); assay: Inhibition of BACE1 in human HEK293 cells overexpressing APP with Swedish mutation assessed as inhibition of amyloid beta 40 production; assay type: cell-based
Beta-secretase 1 [2] = molecular target: T1, Beta-secretase 1; assay: Binding affinity to BACE assessed as displacement of [3H]BMS-599240

T1 sequence (P56817 whole entry): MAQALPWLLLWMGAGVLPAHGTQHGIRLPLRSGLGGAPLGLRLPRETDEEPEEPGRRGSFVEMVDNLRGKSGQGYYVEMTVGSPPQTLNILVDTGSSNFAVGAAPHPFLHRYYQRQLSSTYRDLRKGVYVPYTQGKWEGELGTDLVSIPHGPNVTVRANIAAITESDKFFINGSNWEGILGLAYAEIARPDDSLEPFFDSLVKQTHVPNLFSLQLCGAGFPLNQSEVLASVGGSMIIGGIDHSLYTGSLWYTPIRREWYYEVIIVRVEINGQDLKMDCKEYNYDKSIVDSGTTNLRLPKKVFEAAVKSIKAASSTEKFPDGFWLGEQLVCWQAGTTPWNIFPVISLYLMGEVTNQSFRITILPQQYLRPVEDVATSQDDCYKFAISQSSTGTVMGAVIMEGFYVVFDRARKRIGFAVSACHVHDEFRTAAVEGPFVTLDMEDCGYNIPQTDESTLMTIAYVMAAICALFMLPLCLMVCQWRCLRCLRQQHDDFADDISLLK

| IC50 (Beta-secretase 1 [1]; read-out: IC50) [nM] | IC50 (Beta-secretase 1 [2]; read-out: IC50) [nM] | Structure (SMILES) | IC50 (Beta-secretase 1 [1]; hek293) | IC50 (Beta-secretase 1 [2]) |
| --- | --- | --- | --- | --- |
| 1230 | 111 | C=CCO/N=C(/C)c1cc(C(=O)N[C@@H](Cc2cc(F)cc(F)c2)[C@H](O)CNCc2cccc(OC)c2)cc(N2CCCCS2(=O)=O)c1 |  |  |
| 2100 | 428 | COc1cccc(CNC[C@@H](O)[C@H](Cc2cc(F)cc(F)c2)NC(=O)c2cc(/C(C)=N\OCC(C)C)cc(N3CCCCS3(=O)=O)c2)c1 |  |  |
| 34 | 16 | CCCN(CCC)C(=O)c1cc(CC(C)O)cc(C(=O)N[C@@H](Cc2cc(F)cc(F)c2)[C@H](O)CNCc2cccc(OC)c2)c1 (stereo partly specified) |  |  |
| 640 | 123 | CCCN(CCC)C(=O)c1cc(C(=O)N[C@@H](Cc2cc(F)cc(F)c2)[C@H](O)CNCc2cccc(OC)c2)cc(C(C)N)c1 (stereo partly specified) |  |  |
| 534 | 67 | CCCN(CCC)C(=O)c1cc(C(=O)N[C@@H](Cc2cc(F)cc(F)c2)[C@H](O)CNCc2cccc(OC)c2)cc(/C(C)=N\OCc2ccccc2)c1 |  |  |
| 52 | 60 | CO/N=C(\C)c1cc(C(=O)N[C@@H](Cc2cc(F)cc(F)c2)[C@H](O)CNCc2cccc(OC)c2)cc(N(C)S(C)(=O)=O)c1 |  |  |
|  |  | COc1cccc(CNC[C@@H](O)[C@H](Cc2cc(F)cc(F)c2)NC(=O)c2cc(C(C)O)cc(N(c3ccccc3)S(C)(=O)=O)c2)c1 (stereo partly specified) | Not Active | Not Active |
| 91 | 51 | COc1cccc(CNC[C@@H](O)[C@H](Cc2cc(F)cc(F)c2)NC(=O)c2cc(C(C)=O)cc(C(=O)NC(C)c3ccc(F)cc3)c2)c1 (stereo partly specified) |  |  |
| 30 | 27 | CCCN(CCC)C(=O)c1cc(Sc2ccc(OC)cc2)cc(C(=O)N[C@@H](Cc2cc(F)cc(F)c2)[C@H](O)CNCc2cccc(OC)c2)c1 |  |  |
| 205 | 25 | CCCO/N=C(/C)c1cc(C(=O)N[C@@H](Cc2cc(F)cc(F)c2)[C@H](O)CNCc2cccc(OC)c2)cc(N2CCCCS2(=O)=O)c1 |  |  |
| 182 | 74 | COc1cccc(CNC[C@@H](O)[C@H](Cc2cc(F)cc(F)c2)NC(=O)c2cccc(N3CCCCS3(=O)=O)c2)c1 |  |  |
| 117 | 38 | COc1cccc(CNC[C@@H](O)[C@H](Cc2cc(F)cc(F)c2)NC(=O)c2cc(/C(C)=N\O)cc(N3CCCCS3(=O)=O)c2)c1 |  |  |
| 82 | 32 | CO/N=C(/C)c1cc(C(=O)N[C@@H](Cc2cc(F)cc(F)c2)[C@H](O)CNCc2cccc(OC)c2)cc(C(=O)N[C@H](C)c2ccccc2)c1 |  |  |
| 184 | 6 | CCCO/N=C(/C)c1cc(C(=O)N[C@@H](Cc2cc(F)cc(F)c2)[C@H](O)CNCc2cccc(OC)c2)cc(N(c2ccccc2)S(C)(=O)=O)c1 |  |  |
| > 263 | 17 | COc1cccc(CNC[C@@H](O)[C@H](Cc2cc(F)cc(F)c2)NC(=O)c2cc(C(C)=O)cc(N(c3ccccc3)S(C)(=O)=O)c2)c1 |  |  |
| 120 | 10 | C=CCO/N=C(/C)c1cc(C(=O)N[C@@H](Cc2cc(F)cc(F)c2)[C@H](O)CNCc2cccc(OC)c2)cc(C(=O)N(CCC)CCC)c1 |  |  |
| 248 | 90 | COc1cccc(CNC[C@@H](O)[C@H](Cc2cc(F)cc(F)c2)NC(=O)c2cc(C(C)=O)cc(N3CCCCS3(=O)=O)c2)c1 |  |  |

| Structure (SMILES) | IC50 (Beta-secretase 1 [1]; read-out: IC50) [nM] | IC50 (Beta-secretase 1 [2]; read-out: IC50) [nM] | IC50 (Beta-secretase 1 [1]; hek293) | IC50 (Beta-secretase 1 [2]) |
| --- | --- | --- | --- | --- |
| COc1cccc(CNC[C@@H](O)[C@H](Cc2cc(F)cc(F)c2)NC(=O)c2cccc(C(=O)N[C@H](C)c3ccccc3)c2)c1 | 198 | 89 |  |  |
